# Source: article PMC6199744, “Development of Chemical Proteomics for the Folateome and Analysis of the Kinetoplastid Folateome” (ACS Infectious Diseases, 2018)
# Where two headings read alike, the source gives them in different places.
# How the values were obtained:
# Format in all cases: binding
# [1] = target: T1, HeLa cell extract proteins (Homo sapiens, UniProt Q8N1F7)
# T1 construct: endogenous in cells; host or cells: HeLa cell extract
# T1 sequence (Q8N1F7 1-819): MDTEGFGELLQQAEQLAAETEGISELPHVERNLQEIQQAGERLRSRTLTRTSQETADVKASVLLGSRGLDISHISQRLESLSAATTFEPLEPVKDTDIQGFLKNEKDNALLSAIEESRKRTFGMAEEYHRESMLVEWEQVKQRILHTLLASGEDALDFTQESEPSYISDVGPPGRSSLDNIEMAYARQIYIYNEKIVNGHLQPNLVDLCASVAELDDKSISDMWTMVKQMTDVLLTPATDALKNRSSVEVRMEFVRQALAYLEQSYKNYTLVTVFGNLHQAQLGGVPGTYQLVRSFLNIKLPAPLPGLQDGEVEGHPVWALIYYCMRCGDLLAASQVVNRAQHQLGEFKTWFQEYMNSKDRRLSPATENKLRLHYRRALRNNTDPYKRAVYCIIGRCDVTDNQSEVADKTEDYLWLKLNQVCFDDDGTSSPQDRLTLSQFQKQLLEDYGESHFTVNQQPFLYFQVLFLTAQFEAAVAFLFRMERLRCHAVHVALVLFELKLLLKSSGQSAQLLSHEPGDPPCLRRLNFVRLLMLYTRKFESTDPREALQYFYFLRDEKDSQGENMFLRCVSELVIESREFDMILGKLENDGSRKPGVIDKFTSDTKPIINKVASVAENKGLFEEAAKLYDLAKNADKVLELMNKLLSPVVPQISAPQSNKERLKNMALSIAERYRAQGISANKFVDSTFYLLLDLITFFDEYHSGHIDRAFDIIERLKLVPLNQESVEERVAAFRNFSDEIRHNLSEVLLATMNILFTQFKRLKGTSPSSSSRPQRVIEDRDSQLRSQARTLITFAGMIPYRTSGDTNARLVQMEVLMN
# [2] = target: T2, HeLa cell extract proteins (Homo sapiens, UniProt Q9UK99)
# T2 construct: endogenous in cells; host or cells: HeLa cell extract
# T2 sequence (Q9UK99 1-471): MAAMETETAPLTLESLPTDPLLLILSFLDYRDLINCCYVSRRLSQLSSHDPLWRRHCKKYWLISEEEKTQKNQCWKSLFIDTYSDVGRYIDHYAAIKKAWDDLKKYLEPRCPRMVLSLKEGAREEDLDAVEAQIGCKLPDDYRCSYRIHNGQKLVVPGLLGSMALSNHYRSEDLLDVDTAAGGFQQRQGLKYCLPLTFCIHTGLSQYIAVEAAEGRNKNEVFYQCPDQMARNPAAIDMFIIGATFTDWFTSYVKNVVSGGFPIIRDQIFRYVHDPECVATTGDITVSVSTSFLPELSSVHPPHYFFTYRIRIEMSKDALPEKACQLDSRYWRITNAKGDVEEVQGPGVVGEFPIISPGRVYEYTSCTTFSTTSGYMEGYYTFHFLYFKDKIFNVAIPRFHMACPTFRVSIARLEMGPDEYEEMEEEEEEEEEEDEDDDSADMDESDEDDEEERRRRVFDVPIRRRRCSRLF
# [3] = target: T3, HeLa cell extract proteins (Homo sapiens, UniProt Q9NVE7)
# T3 construct: endogenous in cells; host or cells: HeLa cell extract
# T3 sequence (Q9NVE7 1-773): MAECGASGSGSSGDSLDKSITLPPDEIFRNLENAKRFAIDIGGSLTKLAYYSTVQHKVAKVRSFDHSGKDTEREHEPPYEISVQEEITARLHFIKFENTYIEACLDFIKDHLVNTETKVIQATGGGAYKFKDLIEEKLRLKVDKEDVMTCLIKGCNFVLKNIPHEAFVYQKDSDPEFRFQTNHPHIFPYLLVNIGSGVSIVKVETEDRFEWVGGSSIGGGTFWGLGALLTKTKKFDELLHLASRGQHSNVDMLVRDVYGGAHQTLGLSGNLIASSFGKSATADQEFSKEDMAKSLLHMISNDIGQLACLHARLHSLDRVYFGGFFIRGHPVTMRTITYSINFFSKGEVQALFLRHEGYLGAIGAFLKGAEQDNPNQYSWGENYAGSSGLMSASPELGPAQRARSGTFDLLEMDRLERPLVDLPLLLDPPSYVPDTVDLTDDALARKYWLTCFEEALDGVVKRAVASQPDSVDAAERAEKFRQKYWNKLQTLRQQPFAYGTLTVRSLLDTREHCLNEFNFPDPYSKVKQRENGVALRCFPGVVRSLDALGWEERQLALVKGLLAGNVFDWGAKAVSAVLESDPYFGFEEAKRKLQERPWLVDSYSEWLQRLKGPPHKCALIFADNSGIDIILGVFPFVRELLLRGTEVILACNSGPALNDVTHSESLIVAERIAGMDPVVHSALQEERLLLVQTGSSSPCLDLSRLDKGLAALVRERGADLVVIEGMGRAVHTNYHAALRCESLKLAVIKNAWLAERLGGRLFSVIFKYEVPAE
# [4] = target: T4, HeLa cell extract proteins (Homo sapiens, UniProt P22695)
# T4 construct: endogenous in cells; host or cells: HeLa cell extract
# T4 sequence (P22695 15-453): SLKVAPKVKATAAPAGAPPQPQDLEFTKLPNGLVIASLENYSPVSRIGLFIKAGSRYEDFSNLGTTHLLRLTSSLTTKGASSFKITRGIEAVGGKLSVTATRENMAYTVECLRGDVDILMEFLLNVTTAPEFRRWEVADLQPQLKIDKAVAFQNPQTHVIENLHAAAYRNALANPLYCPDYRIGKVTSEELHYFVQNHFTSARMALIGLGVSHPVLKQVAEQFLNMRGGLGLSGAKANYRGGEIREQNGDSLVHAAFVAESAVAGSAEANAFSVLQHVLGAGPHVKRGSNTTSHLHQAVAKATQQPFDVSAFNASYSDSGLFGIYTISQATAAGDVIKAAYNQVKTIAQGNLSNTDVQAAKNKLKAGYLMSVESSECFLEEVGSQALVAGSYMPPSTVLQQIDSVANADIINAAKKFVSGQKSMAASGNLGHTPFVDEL
# [5] = target: T5, HeLa cell extract proteins (Homo sapiens, UniProt P30040)
# T5 construct: endogenous in cells; host or cells: HeLa cell extract
# [6] = HeLa, protein FBXO3 (ISOFORM 1 OF F-BOX ONLY PROTEIN 3)
SMILES,"fold changes relative to vehicle control ([1]; captured protein NUP93, HeLa)","fold changes relative to vehicle control ([2]; protein FBXO3, HeLa)","fold changes relative to vehicle control ([3]; captured protein PANK4, HeLa)","fold changes relative to vehicle control ([4]; HeLa, protein UQCRC2)","fold changes relative to vehicle control ([5]; protein ERP29, HeLa)",fold changes relative to vehicle control [1],fold changes relative to vehicle control [2],fold changes relative to vehicle control [3],fold changes relative to vehicle control [4],fold changes relative to vehicle control [5],"fold changes relative to vehicle control ([1]; protein NUP93, HeLa)","fold changes relative to vehicle control [2, 6]","fold changes relative to vehicle control ([3]; HeLa, captured protein PANK4)"
Nc1nc2cccc(-c3ccccc3)c2n1Cc1ccc(Cl)c(Cl)c1 [compound 3],0.96,0.91,1.02,1.01,0.94,,,,,,,,
"Nc1nc2[nH]cc(CCc3ccc(C(=O)N[C@@H](CCC(=O)O)C(=O)O)cc3)c2c(=O)[nH]1 [PTX, pemetrexed]",,,,,,0.91,1.04,0.93,0.93,0.96,,,
"Nc1nc2c(c(=O)[nH]1)N(C=O)C(CNc1ccc(C(=O)N[C@@H](CCC(=O)O)C(=O)O)cc1)CN2 (some centres unmarked) [LEU, leucovorin]",,,,0.9,0.97,,,,,,0.84,1.11,0.97
CCCCCCOc1cccc(Cc2cnc(N)nc2N)c1 [compound 2],0.96,1.05,1.12,0.99,1.77,,,,,,,,
NCCOCCOCC(=O)Nc1nc2ncc(CNc3ccc(C(=O)NC(CCC(=O)O)C(=O)O)cc3)nc2c(=O)[nH]1 (centres unmarked) [compound 6],,,,0.95,1.24,,,,,,1.01,1.01,0.96
CCCCCCOc1ccc(Cc2cnc(N)nc2N)cc1 [compound 1],0.87,0.98,0.98,0.97,1.29,,,,,,,,
NCCCNc1ccc(C(=O)NC(CCC(=O)O)C(=O)O)cc1 (centres unmarked) [compound 7],,,,1.03,0.88,,,,,,0.9,0.99,1.04
